{"source": "ChEMBL document CHEMBL4828727", "about": "“Antibacterial and antitumoral properties of 1,2,3-triazolo fused triterpenes and their mechanism of inhibiting the proliferation of HL-60 cells” (Eur J Med Chem, 2021)", "key": {"HL-60 [1]": {"system": "HL-60", "experiment": "Induction of apoptosis in human HL-60 cells assessed as late apoptotic cells at 10 uM after 48 hrs by Annexin V-PE/7-AAD dual staining based flow cytometry (reference value: 3.93%)", "format": "functional"}, "HL-60 [2]": {"system": "HL-60", "experiment": "Induction of apoptosis in human HL-60 cells assessed as live cells at 8 uM after 48 hrs by Annexin V-PE/7-AAD dual staining based flow cytometry (reference value: 90.1 to 90.7%)", "format": "functional"}, "[3]": {"experiment": "Antiproliferative activity against human DND41 cells assessed as inhibition of cell viability measured after 72 hrs by real-time IncuCyte proliferation analysis", "format": "functional, cell-based", "conditions": "DND41, 72 h"}, "HL-60 [4]": {"system": "HL-60", "experiment": "Induction of mitochondrial membrane potential loss in human HL-60 cells at 10 uM after 48 hrs by JC-1 staining based flow cytometry (reference value: 3.49%)", "format": "functional"}, "CAPAN-1": {"system": "CAPAN-1", "experiment": "cells", "format": "functional, cell-based", "conditions": "Homo sapiens, CAPAN-1, 72 h", "description": "Antiproliferative activity against human CAPAN-1 cells assessed as inhibition of cell viability measured after 72 hrs by colorimetric MTS viability assay"}, "HL-60 [5]": {"system": "HL-60", "experiment": "Induction of apoptosis in human HL-60 cells assessed as early apoptotic cells at 10 uM in presence of 3-MA after 48 hrs by Annexin V-PE/7-AAD dual staining based flow cytometry (reference value: 3.14%)", "format": "functional"}, "HL-60 [6]": {"system": "HL-60", "experiment": "Induction of apoptosis in human HL-60 cells assessed as early apoptotic cells at 10 uM after 48 hrs by Annexin V-PE/7-AAD dual staining based flow cytometry (reference value: 1.72 to 3.25%)", "format": "functional"}, "[7]": {"experiment": "Antiproliferative activity against human HAP1 cells assessed as inhibition of cell viability measured after 72 hrs by colorimetric MTS viability assay", "format": "functional, cell-based", "conditions": "HAP1, 72 h"}, "Listeria innocua": {"system": "Listeria innocua", "experiment": "Antibacterial activity against Listeria innocua LMG11387 assessed as growth inhibition after 20 hrs by broth microdilution method", "format": "functional"}, "HL-60 [8]": {"system": "HL-60", "experiment": "Induction of apoptosis in human HL-60 cells assessed as late apoptotic cells at 10 uM in presence of 3-MA after 48 hrs by Annexin V-PE/7-AAD dual staining based flow cytometry (reference value: 3.12%)", "format": "functional"}, "HL-60 [9]": {"system": "HL-60", "experiment": "cells", "format": "functional, cell-based", "conditions": "Homo sapiens, HL-60, 72 h", "description": "Antiproliferative activity against human HL-60 cells assessed as inhibition of cell viability measured after 72 hrs by real-time IncuCyte proliferation analysis"}, "HL-60 [10]": {"system": "HL-60", "experiment": "Induction of apoptosis in human HL-60 cells assessed as live cells at 10 uM after 48 hrs by Annexin V-PE/7-AAD dual staining based flow cytometry (reference value: 90.1 to 90.7%)", "format": "functional"}, "HL-60 [11]": {"system": "HL-60", "experiment": "Induction of autophagy in human HL-60 cells assessed as fold increase in MDC fluorescence intensity at 8 uM measured after 48 hrs by flow cytometry relative to control", "format": "functional"}, "HL-60 [12]": {"system": "HL-60", "experiment": "Induction of apoptosis in human HL-60 cells assessed as necrotic cells at 8 uM in presence of 3-MA after 48 hrs by Annexin V-PE and 7AAD based flow cytometry (reference value: 2.62%)", "format": "functional"}, "K562": {"system": "K562", "experiment": "cells", "format": "functional, cell-based", "conditions": "Homo sapiens, K562, 72 h", "description": "Antiproliferative activity against human K562 cells assessed as inhibition of cell viability measured after 72 hrs by real-time IncuCyte proliferation analysis"}, "HL-60 [13]": {"system": "HL-60", "experiment": "Cell cycle arrest in human HL-60 cells assessed as decrease in accumulation in S phase at 10 uM incubated for 48 hrs by propidium iodide based flow cytometric analysis (reference value: 28.42%)", "format": "functional", "parameters": "scale not given: the % may be the effect or the level left"}, "HL-60 [14]": {"system": "HL-60", "experiment": "Cell cycle arrest in human HL-60 cells assessed as decrease in accumulation in S phase at 6 uM incubated for 48 hrs by propidium iodide staining based flow cytometric analysis (reference value: […])", "format": "functional", "parameters": "scale not given: the % may be the effect or the level left"}, "HL-60 [15]": {"system": "HL-60", "experiment": "Induction of apoptosis in human HL-60 cells assessed as live cells at 6 uM in presence of 3-MA after 48 hrs by Annexin V-PE/7-AAD dual staining based flow cytometry (reference value: 91.1%)", "format": "functional"}, "HL-60 [16]": {"system": "HL-60", "experiment": "Cell cycle arrest in human HL-60 cells assessed as increase in accumulation in G0/G1 phase at 6 uM incubated for 48 hrs by propidium iodide staining based flow cytometric analysis (reference value: 64.97%)", "format": "functional"}, "HL-60 [17]": {"system": "HL-60", "experiment": "Cell cycle arrest in human HL-60 cells assessed as decrease in accumulation in S phase at 8 uM incubated for 48 hrs by propidium iodide based flow cytometric analysis (reference value: 28.42%)", "format": "functional", "parameters": "scale not given: the % may be the effect or the level left"}, "HL-60 [18]": {"system": "HL-60", "experiment": "Induction of mitochondrial membrane potential loss in human HL-60 cells at 6 uM after 48 hrs by JC-1 staining based flow cytometry (reference value: 3.49%)", "format": "functional"}, "HL-60 [19]": {"system": "HL-60", "experiment": "Induction of apoptosis in human HL-60 cells assessed as necrotic cells at 6 uM in presence of 3-MA after 48 hrs by Annexin V-PE/7-AAD dual staining based flow cytometry (reference value: 2.62%)", "format": "functional"}, "HL-60 [20]": {"system": "HL-60", "experiment": "Cell cycle arrest in human HL-60 cells assessed as accumulation of cells at G2/M phase at 10 uM incubated for 48 hrs by propidium based flow cytometric analysis (reference value: 6.61%)", "format": "functional"}, "HL-60 [21]": {"system": "HL-60", "experiment": "Cell cycle arrest in human HL-60 cells assessed as increase in accumulation in G0/G1 phase at 8 uM incubated for 48 hrs by propidium iodide staining based flow cytometric analysis (reference value: 64.97%)", "format": "functional"}, "HL-60 [22]": {"system": "HL-60", "experiment": "Induction of apoptosis in human HL-60 cells assessed as necrotic cells at 8 uM after 48 hrs by Annexin V-PE and 7AAD based flow cytometry (reference value: 2.64 to 3.64%)", "format": "functional"}, "HL-60 [23]": {"system": "HL-60", "experiment": "Induction of apoptosis in human HL-60 cells assessed as early apoptotic cells at 6 uM after 48 hrs by Annexin V-PE/7-AAD dual staining based flow cytometry (reference value: 1.72 to 3.25%)", "format": "functional"}, "HL-60 [24]": {"system": "HL-60", "experiment": "Induction of apoptosis in human HL-60 cells assessed as necrotic cells at 6 uM after 48 hrs by Annexin V-PE/7-AAD dual staining based flow cytometry (reference value: 2.64 to 3.64%)", "format": "functional"}, "HL-60 [25]": {"system": "HL-60", "experiment": "Induction of apoptosis in human HL-60 cells assessed as late apoptotic cells at 6 uM in presence of 3-MA after 48 hrs by Annexin V-PE/7-AAD dual staining based flow cytometry (reference value: 3.12%)", "format": "functional"}, "HL-60 [26]": {"system": "HL-60", "experiment": "Cell cycle arrest in human HL-60 cells assessed as accumulation of cells at G2/M phase at 6 uM incubated for 48 hrs by propidium iodide staining based flow cytometric analysis (reference value: 6.61%)", "format": "functional"}, "HL-60 [27]": {"system": "HL-60", "experiment": "Induction of autophagy in human HL-60 cells assessed as fold increase in MDC fluorescence intensity at 6 uM measured after 48 hrs by flow cytometry relative to control", "format": "functional"}, "Jurkat": {"system": "Jurkat", "experiment": "cells", "format": "functional, cell-based", "conditions": "Homo sapiens, 72 h", "description": "Cytotoxicity against human Jurkat cells assessed as inhibition of cell viability measured after 72 hrs by real-time IncuCyte proliferation analysis"}, "HL-60 [28]": {"system": "HL-60", "experiment": "Induction of apoptosis in human HL-60 cells assessed as early apoptotic cells at 6 uM in presence of 3-MA after 48 hrs by Annexin V-PE/7-AAD dual staining based flow cytometry (reference value: 3.14%)", "format": "functional"}, "HL-60 [29]": {"system": "HL-60", "experiment": "Induction of apoptosis in human HL-60 cells assessed as live cells at 10 uM in presence of 3-MA after 48 hrs by Annexin V-PE/7-AAD dual staining based flow cytometry (reference value: 91.1%)", "format": "functional"}, "HL-60 [30]": {"system": "HL-60", "experiment": "Induction of apoptosis in human HL-60 cells assessed as late apoptotic cells at 8 uM in presence of 3-MA after 48 hrs by Annexin V-PE and 7AAD based flow cytometry (reference value: 3.12%)", "format": "functional"}, "Rec1": {"system": "Rec1", "experiment": "cells", "format": "functional, cell-based", "conditions": "Homo sapiens, Rec1, 72 h", "description": "Cytotoxicity against human REC1 cells assessed as inhibition of cell viability measured after 72 hrs by real-time IncuCyte proliferation analysis"}}, "data": [{"compound": "COc1ccc2[nH]cc(CCn3nnc4c3C(C)(C)[C@@H]3CC[C@]5(C)[C@H](CC=C6[C@@H]7CC(C)(C)CC[C@]7(C(=O)O)CC[C@]65C)[C@@]3(C)C4)c2c1", "values": [{"measurement": "Activity", "setting": "HL-60 [1]", "value": 63.2, "unit": "%"}, {"measurement": "Activity", "setting": "HL-60 [2]", "value": 50.1, "unit": "%"}, {"measurement": "IC50", "setting": "[3]", "value": 7.2, "unit": "µM"}, {"measurement": "Activity", "setting": "HL-60 [4]", "value": 60.8, "unit": "%"}, {"measurement": "IC50", "setting": "CAPAN-1", "value": 8.1, "unit": "µM"}, {"measurement": "Activity", "setting": "HL-60 [5]", "value": 14.7, "unit": "%"}, {"measurement": "Activity", "setting": "HL-60 [6]", "value": 8.13, "unit": "%"}, {"measurement": "IC50", "setting": "[7]", "value": 4.1, "unit": "µM"}, {"measurement": "MIC50", "setting": "Listeria innocua", "value": 103, "unit": "µg/mL"}, {"measurement": "Activity", "setting": "HL-60 [8]", "value": 30.8, "unit": "%"}, {"measurement": "IC50", "setting": "HL-60 [9]", "value": 1.3, "unit": "µM"}, {"measurement": "Activity", "setting": "HL-60 [10]", "value": 20.4, "unit": "%"}, {"measurement": "fold change (FC)", "setting": "HL-60 [11]", "value": 1.72}, {"measurement": "Activity", "setting": "HL-60 [12]", "value": 2.21, "unit": "%"}, {"measurement": "IC50", "setting": "K562", "value": 80.7, "unit": "µM"}, {"measurement": "Activity", "setting": "HL-60 [13]", "value": 11.39, "unit": "%"}, {"measurement": "Activity", "setting": "HL-60 [14]", "value": 24.83, "unit": "%"}, {"measurement": "Activity", "setting": "HL-60 [15]", "value": 82.1, "unit": "%"}, {"measurement": "Activity", "setting": "HL-60 [16]", "value": 67.5, "unit": "%"}, {"measurement": "Activity", "setting": "HL-60 [17]", "value": 20.46, "unit": "%"}, {"measurement": "Activity", "setting": "HL-60 [18]", "value": 7.86, "unit": "%"}, {"measurement": "Activity", "setting": "HL-60 [19]", "value": 0.358, "unit": "%"}, {"measurement": "Activity", "setting": "HL-60 [20]", "value": 3.16, "unit": "%"}, {"measurement": "Activity", "setting": "HL-60 [21]", "value": 73.3, "unit": "%"}, {"measurement": "Activity", "setting": "HL-60 [22]", "value": 0.415, "unit": "%"}, {"measurement": "Activity", "setting": "HL-60 [23]", "value": 3.06, "unit": "%"}, {"measurement": "Activity", "setting": "HL-60 [24]", "value": 0.501, "unit": "%"}, {"measurement": "Activity", "setting": "HL-60 [25]", "value": 13.7, "unit": "%"}, {"measurement": "Activity", "setting": "HL-60 [26]", "value": 7.66, "unit": "%"}, {"measurement": "fold change (FC)", "setting": "HL-60 [27]", "value": 1.49}, {"measurement": "IC50", "setting": "Jurkat", "value": 8.7, "unit": "µM"}, {"measurement": "Activity", "setting": "HL-60 [28]", "value": 3.91, "unit": "%"}, {"measurement": "Activity", "setting": "HL-60 [29]", "value": 54.2, "unit": "%"}, {"measurement": "Activity", "setting": "HL-60 [30]", "value": 8.89, "unit": "%"}, {"measurement": "IC50", "setting": "Rec1", "value": 6.2, "unit": "µM"}]}]}
